Earlier results in patent US6800616B2, “Treatment of HIV infections” (SuperGen, Inc., priority 1998, dated 2004).

Legend:
[1] = molecular target: T1, adenosine deaminase (ADA) (Homo sapiens, UniProt P00813)
T1 sequence (P00813 1-363): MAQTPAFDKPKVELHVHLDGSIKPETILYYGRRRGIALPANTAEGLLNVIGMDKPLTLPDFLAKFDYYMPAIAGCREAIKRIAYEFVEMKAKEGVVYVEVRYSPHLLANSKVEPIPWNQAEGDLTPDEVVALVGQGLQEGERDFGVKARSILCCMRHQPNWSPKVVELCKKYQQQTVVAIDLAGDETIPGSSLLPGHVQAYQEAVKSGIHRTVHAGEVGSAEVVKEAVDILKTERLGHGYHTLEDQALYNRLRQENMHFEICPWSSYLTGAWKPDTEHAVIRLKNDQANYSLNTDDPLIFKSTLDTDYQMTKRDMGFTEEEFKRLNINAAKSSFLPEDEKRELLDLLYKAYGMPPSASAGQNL

T cells, CD4+ subset = conditions: patients given DCF, FLU or 2CDA
[2] = tested on: resting normal human lymphocytes

Row | Compound | resistance to ADA [1] | frequency of opportunistic infections (T cells, CD4+ subset) | lymphopenia upon administration (T cells, CD4+ subset) | toxicity to resting lymphocytes [2]
1 | Nc1nc(F)nc2c1ncn2[C@@H]1O[C@H](COP(=O)(O)O)[C@@H](O)[C@@H]1O [FLU, fludarabine monophosphate] | rather resistant to the enzyme | increased frequency of opportunistic infections | prolonged lymphopenia predominating in T cells, especially in the CD4+ subset | 
2 | Nc1nc(Cl)nc2c1ncn2[C@H]1C[C@H](O)[C@@H](CO)O1 [2CDA, 2-chloro-2′-deoxyadenosine] | rather resistant to the enzyme | increased frequency of opportunistic infections | prolonged lymphopenia predominating in T cells, especially in the CD4+ subset | selectively harm resting normal human lymphocytes
3 | OC[C@H]1O[C@@H](n2cnc3c2NC=NC[C@H]3O)C[C@@H]1O [DCF, 2′-deoxycoformycin] |  | increased frequency of opportunistic infections | prolonged lymphopenia predominating in T cells, especially in the CD4+ subset | 
